Assays:
Format in all cases: cell-based
[1] = tested on: Lovo cells; experiment: Cancer cell proliferation inhibition (Cell Counting Kit-8), colorectal cancer cell line; conditions: 1000 nM, cultured seven to 11 days
Method: (§1) In addition, as one example of solid cancer in which an overexpression of EZH2 and a consequent disease association therebetween is reported, a proliferation inhibitory activity of the 1,3-benzodioxole derivative compounds represented by chemical formula I of the present invention was evaluated in Lovo cells as a colorectal cancer cell line, SW-13 cells as an adrenal cancer cell line, MIA-PaCa-2 cells as a pancreatic cancer cell line, and NCI-H1299 cells as a lung cancer cell line.
(§2) Each cell line (G401 cell, MKN-45 cell, Lovo cell, SW-13 cell, MIA-PaCa-2, NCI-H1299) of Table 2 below was cultured using RPMI1640, McCoy's 5a, L-15 or DMEM containing 10% fetal bovine serum, and the cells were seeded into wells of a 96-well culture dish at 100 to 1,000 cells each, and a test substance 1000 nM was cultured for seven to 11 days after drug treatment. After the culture, the cells were measured according to a manufacturer's instructions using Cell Counting Kit-8, and a cell proliferation inhibitory effect (% inhibition rate) of the test substance was obtained.
(§3) The cell proliferation inhibitory effect (% inhibition rate) of the test substance was calculated using a following equation. % inhibition rate = {1−(testgroup/controlgroup)} X 100 [formula]

[2] = tested on: MIA-PaCa-2 cells; experiment: Cancer cell proliferation inhibition (Cell Counting Kit-8), pancreatic cancer cell line; conditions: 1000 nM, cultured seven to 11 days
Method: as §1, §2, §3

[3] = tested on: SW-13 cells; experiment: Cancer cell proliferation inhibition (Cell Counting Kit-8), adrenal cancer cell line; conditions: 1000 nM, cultured seven to 11 days
Method: as §1, §2, §3

[4] = tested on: MKN-45 cells; experiment: Cancer cell proliferation inhibition (Cell Counting Kit-8), gastric cancer cell line; conditions: 1000 nM, cultured seven to 11 days
Excerpt: (§4) Among solid cancer cells, in G401 cells in which expression of SMARCB1, which is a member of switch/sucrosenon-fermenting (SWI/SNF), is defective as a cell line of a rhabdoid tumor in which a therapeutic effect may be expected through dual inhibition of EZH1/2, and MKN-45 cells in which expression of ARID1A, which is a member of SWI/SNF, is defective as a gastric cancer cell line, a proliferation inhibitory ability of the 1,3-benzodioxole derivative compounds represented by chemical formula I of the present invention was evaluated.
as §2, §3

[5] = tested on: NCI-H1299 cells; experiment: Cancer cell proliferation inhibition (Cell Counting Kit-8), lung cancer cell line; conditions: 1000 nM, cultured seven to 11 days
Method: as §1, §2, §3

[6] = tested on: G401 cells; experiment: Cancer cell proliferation inhibition (Cell Counting Kit-8), rhabdoid tumor cell line; conditions: 1000 nM, cultured seven to 11 days; for % inhibition rate G401: 1 µM
Excerpt: as §4, §2, §3

Structure (SMILES) | % inhibition rate LoVo [1] | % inhibition rate MIA-Paca2 [2] | % inhibition rate SW-13 ([3]; 1 µM) | % inhibition rate MKN -45 ([4]; 1 µM) | % inhibition rate NCI-H129 9 [5] | % inhibition rate G401 [6] | % inhibition rate LoVo ([1]; 1 µM) | % inhibition rate MKN -45 [4] | % inhibition rate NCI-H129 9 ([5]; 1 µM) | % inhibition rate SW-13 [3] | inhibition at 1 µM ([1]; Homo sapiens, LoVo, 264 h, read-out: % inhibition rate LoVo) | inhibition at 1 µM ([2]; Homo sapiens, MIA PaCa-2, 264 h, read-out: % inhibition rate MIA-Paca2) | inhibition at 1 µM ([3]; Homo sapiens, SW13, 264 h, read-out: % inhibition rate SW-13) | inhibition at 1 µM ([4]; Homo sapiens, MKN-45, 264 h, read-out: % inhibition rate MKN -45) | inhibition at 1 µM ([5]; Homo sapiens, NCI-H1299, 264 h, read-out: % inhibition rate NCI-H129 9) | inhibition at 1 µM ([6]; Homo sapiens, G-401, 264 h, read-out: % inhibition rate G401)
CSc1cc(C)[nH]c(=O)c1CNC(=O)c1cc(-c2ccc(N3C[C@@H](C)O[C@@H](C)C3)nc2)c2c(c1C)OC(C)(C1CCN(CC(F)F)CC1)O2 (single isomer, unassigned) [Compound 48] | +++ (+++: ≥70%) | + (+: ≤30%) | + (+: ≤30%) | + (+: ≤30%) | ++ (++: more than 30% and less than 70%) | + (+: ≤30%) |  |  |  |  |  |  |  |  |  | 
CSc1cc(C)[nH]c(=O)c1CNC(=O)c1cc(-c2ccc(N3C[C@@H](C)O[C@@H](C)C3)nc2)c2c(c1C)OC(C)(C1CCN(C(C)C)CC1)O2 (single isomer, unassigned) [Compound 52] |  | + (+: ≤30%) | + (+: ≤30%) |  |  | + (+: ≤30%) | + (+: ≤30%) | + (+: ≤30%) | + (+: ≤30%) |  |  |  |  |  |  | 
CSc1cc(C)[nH]c(=O)c1CNC(=O)c1cc(-c2ccc(N3CCOCC3)nc2)c2c(c1C)OC(C)(C1CCN(CC(F)(F)F)CC1)O2 (single isomer, unassigned) [Compound 63, 2,4-dimethyl-N-((6-methyl-4-(methylthio)-2-oxo-1,2-dihydropyridin-3-yl)methyl)-7-(6-morpholinopyridin-3-yl)-2-(1-(2,2,2-trifluoro)piperidin-4-yl)benzo[d][1,3]dioxole-5-carboxamide] |  | + (+: ≤30%) | + (+: ≤30%) |  |  | + (+: ≤30%) | ++ (++: more than 30% and less than 70%) | ++ (++: more than 30% and less than 70%) | + (+: ≤30%) |  |  |  |  |  |  | 
CSc1cc(C)[nH]c(=O)c1CNC(=O)c1cc(-c2ccc(N3C[C@@H](C)O[C@@H](C)C3)nc2)c2c(c1C)OC(C)(C1CCN(C(=O)C(F)(F)F)CC1)O2 (single isomer, unassigned) [Compound 60] | +++ (+++: ≥70%) | + (+: ≤30%) | + (+: ≤30%) | + (+: ≤30%) |  | + (+: ≤30%) |  |  | + (+: ≤30%) |  |  |  |  |  |  | 
CSc1cc(C)[nH]c(=O)c1CNC(=O)c1cc(-c2cnc(N3CCOCC3)nc2)c2c(c1C)OC(C)(C1CCN(CC(F)F)CC1)O2 (single isomer, unassigned) [Compound 72, 2-(1-(2,2-difluoroethyl)piperidin-4-yl)-2,4-dimethyl-N-((6-methyl-4-(methylthio)-2-oxo-1,2-dihydropyridin-3-yl)methyl)-7-(2-morpholinopyrimidin-5-yl)benzo[d][1,3]dioxole-5-carboxamide] | +++ (+++: ≥70%) | + (+: ≤30%) |  |  |  | + (+: ≤30%) |  | ++ (++: more than 30% and less than 70%) | + (+: ≤30%) | ++ (++: more than 30% and less than 70%) |  |  |  |  |  | 
CSc1cc(C)[nH]c(=O)c1CNC(=O)c1cc(-c2ccc(N3C[C@@H](C)O[C@@H](C)C3)nc2)c2c(c1C)OC(C)(C1CCN(CC(F)(F)F)CC1)O2 (single isomer, unassigned) [Compound 45] |  | + (+: ≤30%) |  | + (+: ≤30%) | ++ (++: more than 30% and less than 70%) | + (+: ≤30%) | ++ (++: more than 30% and less than 70%) |  |  | ++ (++: more than 30% and less than 70%) |  |  |  |  |  | 
CCN(C)c1ccc(-c2cc(C(=O)NCc3c(SC)cc(C)[nH]c3=O)c(C)c3c2OC(C)(C2CCN(CC(F)(F)F)CC2)O3)cn1 (single isomer, unassigned) [Compound 87, 7-(6-(ethyl(methyl)amino)pyridin-3-yl)-2,4-dimethyl-N-((6-methyl-4-(methylthio)-2-oxo-1,2-dihydropyridin-3-yl)methyl)-2-(1-(2,2,2-trifluoroethyl)piperidin-4-yl)benzo[d][1,3]dioxole-5-carboxamide] | +++ (+++: ≥70%) | + (+: ≤30%) | + (+: ≤30%) | + (+: ≤30%) |  | + (+: ≤30%) |  |  | + (+: ≤30%) |  |  |  |  |  |  | 
CCN1CCC(C2(C)Oc3c(-c4ccc(N5CCOCC5)nc4)cc(C(=O)NCc4c(SC)cc(C)[nH]c4=O)c(C)c3O2)CC1 (single isomer, unassigned) [Compound 67, 2-(1-ethylpiperidin-4-yl)-2,4-dimethyl-N-((6-methyl-4-(methylthio)-2-oxo-1,2-dihydropyridin-3-yl)methyl)-7-(6-morpholinopyridin-3-yl)benzo[d][1,3]dioxole-5-carboxamide] |  | + (+: ≤30%) |  | + (+: ≤30%) | + (+: ≤30%) | + (+: ≤30%) | + (+: ≤30%) |  |  | + (+: ≤30%) |  |  |  |  |  | 
CSc1cc(C)[nH]c(=O)c1CNC(=O)c1cc(-c2ccc(N3CC(C)CC(C)C3)nc2)c2c(c1C)OC(C)(C1CCN(CC(F)(F)F)CC1)O2 (stereo not drawn) [Compound 37, 7-(6-(3,5-dimethylpiperidin-1-yl)pyridin-3-yl)-2,4-dimethyl-N-((6-methyl-4-(methylthio)-2-oxo-1,2-dihydropyridin-3-yl)methyl)-2-(1-(2,2,2-trifluoroethyl)piperidin-4-yl)benzo[d][1,3]dioxole-5-carboxamide] |  |  |  |  |  |  |  |  |  |  | ≥ 70% | ≤ 30% | ≤ 30% | ≤ 30% | 30 to 70% | ≤ 30%
CCN1CCN(c2ncc(-c3cc(C(=O)NCc4c(SC)cc(C)[nH]c4=O)c(C)c4c3OC(C)(C3CCN(CC(F)(F)F)CC3)O4)cn2)CC1 (single isomer, unassigned) [Compound 77, 7-(2-(4-ethylpiperazin-1-yl)pyrimidin-5-yl)-2,4-dimethyl-N-((6-methyl-4-(methylthio)-2-oxo-1,2-dihydropyridin-3-yl)methyl)-2-(1-(2,2,2-trifluoroethyl)piperidin-4-yl)benzo[d][1,3]dioxole-5-carboxamide] |  | + (+: ≤30%) | + (+: ≤30%) | + (+: ≤30%) | + (+: ≤30%) | + (+: ≤30%) | ++ (++: more than 30% and less than 70%) |  |  |  |  |  |  |  |  | 
CSc1cc(C)[nH]c(=O)c1CNC(=O)c1cc(-c2ccc(N3C[C@@H](C)O[C@@H](C)C3)nc2)c2c(c1C)OC(C)(C1CCN(CCc3ccccc3)CC1)O2 (single isomer, unassigned) [Compound 56] | +++ (+++: ≥70%) | + (+: ≤30%) | + (+: ≤30%) | + (+: ≤30%) |  | ++ (++: more than 30% and less than 70%) |  |  | + (+: ≤30%) |  |  |  |  |  |  | 

From EP4740948A1 (Dong Wha Pharm. Co., Ltd., priority 2023, dated 2025)
